# Structures can show the parent of a compound that is named as a salt.
# Molecular target: T1, TNIK (Homo sapiens, UniProt Q9UKE5)
# T1 construct: purchased Promega V4158
# Assay: ADP-Glo Kinase Assay, inhibition activity on TNIK
# Assay type: biochemical
# Conditions: not given
# Method: The inhibition activities on TNIK, IKKε and TBK1 were measured by a luminometer, TNIK/IKKε/TBK1 Kinase Enzyme System (Promega, Ca# V4158; Invitrogen, PR8031B, Promega, Ca# V3991) and ADP-Glo Kinase Assay using ADP-Glo™ Kinase Analysis Kit (Promega, Ca# V9101) and a kinase reaction buffer [40 mM Tris(pH 7.5), 20 mM MgCl2, 0.1 mg/mL BSA] in accordance with the manufacturer's protocol.
# T1 sequence (Q9UKE5 1-367 limits assumed): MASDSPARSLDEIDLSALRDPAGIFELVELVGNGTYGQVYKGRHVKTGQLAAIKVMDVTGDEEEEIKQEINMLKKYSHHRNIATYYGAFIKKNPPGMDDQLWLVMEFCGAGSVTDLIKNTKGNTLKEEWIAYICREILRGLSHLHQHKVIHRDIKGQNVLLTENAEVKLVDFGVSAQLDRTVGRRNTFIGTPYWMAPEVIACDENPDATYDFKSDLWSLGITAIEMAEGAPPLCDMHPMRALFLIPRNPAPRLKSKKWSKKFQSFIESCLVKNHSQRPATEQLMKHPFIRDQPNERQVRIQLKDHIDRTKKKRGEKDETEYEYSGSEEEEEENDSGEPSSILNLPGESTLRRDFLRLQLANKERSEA
row,TNIK (μM),Compound
1,Insoluble,"O=C(Nc1ccc(-c2cccs2)c2c1C(=O)NC2)c1ccc(NCCO)cc1 [Example 371, 4-((2-Hydroxyethyl)amino)-N-(3-oxo-7-(thiophen-2-yl)isoindolin-4-yl)benzamide]"
2,Insoluble,"COc1ccc(-c2ccc(NC(=O)c3ccccc3)c3c2CNC3=O)cn1 [Example 200, N-(7-(6-methoxypyridin-3-yl)-3-oxoisoindolin-4-yl)benzamide]"

# Same assay, conditions: read-out: TNIK
row,Compound,IC50
1,"O=C(Nc1ccc(Br)c2c1C(=O)NC2)c1ccc(NCCCN2CCCCC2)cc1 [Example 282, N-(7-bromo-3-oxoisoindolin-4-yl)-4-((3-(piperidin-1-yl)propyl)amino)benzamide]",1400 nM
2,"COc1ccc(-c2ccc(NC(=O)c3ccccc3)c3c2CNC3=O)cc1OC [Example 176, N-(7-(3,4-dimethoxyphenyl)-3-oxoisoindolin-4-yl)benzamide]",> 20000 nM
3,"COc1cccc(-c2ccc(NC(=O)c3ccc(NCCN4CCCC4)cc3)c3c2CNC3=O)c1OC [Example 304, N-(7-(2,3-dimethoxyphenyl)-3-oxoisoindolin-4-yl)-4-((2-(pyrrolidin-1-yl)ethyl)amino)benzamide hydrochloride]",73 nM
4,"O=C1NCc2c(-c3ccccc3)ccc(NC(=S)Nc3ccccc3)c21 [Example 247, 1-(3-Oxo-7-phenylisoindolin-4-yl)-3-phenylthiourea]",> 20000 nM
5,"Nc1ccc(-c2ccco2)c2c1C(=O)NC2=O [Example 274, 4-Amino-7-(furan-2-yl)isoindolin-1,3-dione]",3600 nM
6,"CS(=O)(=O)c1cccc(-c2ccc(NC(=O)c3ccccc3)c3c2CNC3=O)c1 [Example 168, N-(7-(3-(methylsulfonyl)phenyl)-3-oxoisoindolin-4-yl) benzamide]",> 20000 nM
7,"COc1cccc(-c2ccc(NC(=O)c3ccc(NCCO)cc3)c3c2CNC3=O)c1OC [Example 311, N-(7-(2,3-dimethoxyphenyl)-3-oxoisoindolin-4-yl)-4-((2-hydroxyethyl)amino)benzamide]",52 nM
8,"O=C(Nc1ccc(-c2cccc3ncoc23)c2c1C(=O)NC2)c1ccc(NCCN2CCCC2)cc1 [Example 376, N-(7-(benzo[d]oxazol-7-yl)-3-oxoisoindolin-4-yl)-4-((2-(pyrrolidin-1-yl)ethyl)amino)benzamide]",72 nM
9,"O=C1NCc2c(-c3ccccc3)ccc(NCCN3CCOCC3)c21 [Example 260, 7-((2-Morpholinoethyl)amino)-4-phenylisoindolin-1-one]",> 20000 nM
10,COc1ccccc1-c1ccc(NC(=O)c2ccc(NCCN3CCOCC3)cc2)c2c1CNC2=O [Example 326],93 nM
11,"O=C(Nc1ccc(-c2ccccc2)c2c1C(=O)NC2)c1ccc(NCCCN2CCOCC2)cc1 [Example 327, 4-((3-Morpholinopropyl)amino)-N-(3-oxo-7-phenylisoindolin-4-yl)benzamide]",700 nM
12,"O=C1NCc2c(-c3ccccc3)ccc(NCCO)c21 [Example 256, 7-((2-Hydroxyethyl)amino)-4-phenylisoindolin-1-one]",4900 nM
13,"CN(C)CCNc1ccc(C(=O)Nc2ccc(-c3cccc4ncoc34)c3c2C(=O)NC3)cc1 [Example 341, N-(7-(benzo[d]oxazol-7-yl)-3-oxoisoindolin-4-yl)-4-((2-(dimethylamino)ethyl)amino)benzamide]",38 nM
14,"O=C(Nc1ccc(-c2ccccc2)c2c1C(=O)NC2)c1cccs1 [Example 203, N-(3-oxo-7-phenylisoindolin-4-yl)thiophene-2-carboxamide]",350 nM
15,"CC(=O)Nc1ccc(C(=O)Nc2ccc(-c3ccco3)c3c2C(=O)NC3)cc1 [Example 140, 4-Acetamido-N-(7-(furan-2-yl)-3-oxoisoindolin-4-yl) benzamide]",300 nM
16,"COc1ccccc1-c1ccc(NC(=O)c2ccc(NCCN3CCCCC3)cc2)c2c1CNC2=O [Example 361, N-(7-(2-methoxyphenyl)-3-oxoisoindolin-4-yl)-4-((2-(piperidin-1-yl)ethyl)amino)benzamide]",170 nM
17,"COc1cc(OC)cc(-c2ccc(NC(=O)c3ccccc3)c3c2CNC3=O)c1 [Example 172, N-(7-(3,5-dimethoxyphenyl)-3-oxoisoindolin-4-yl)benzamide]",> 20000 nM
18,"COc1cccc(-c2ccc(NC(=O)c3ccc(NCCN)cc3)c3c2CNC3=O)c1OC [Example 315, 4-((2-Aminoethyl)amino)-N-(7-(2,3-dimethoxyphenyl)-3-oxoisoindolin-4-yl)benzamide]",37 nM
19,"CC(C)NC(=O)Nc1ccc(-c2ccccc2)c2c1C(=O)NC2 [Example 234, 1-Isopropyl-3-(3-oxo-7-phenylisoindolin-4-yl)urea]",1900 nM
20,"COc1cccc(-c2ccc(NC(=O)c3cccs3)c3c2CNC3=O)c1OC [Example 136, N-(7-(2,3-dimethoxyphenyl)-3-oxoisoindolin-4-yl)thiophene-2-carboxamide]",68 nM
21,"O=C(Nc1ccc(-c2ccnc3ccccc23)c2c1C(=O)NC2)c1ccc(NCCN2CCCC2)cc1 [Example 387, N-(3-oxo-7-(quinolin-4-yl)isoindolin-4-yl)-4-((2-(pyrrolidin-1-yl)ethyl)amino)benzamide]",33 nM
22,"O=C(Nc1ccc(-c2ccccc2)c2c1C(=O)NC2)c1ccc(NCCN2CCCCC2)cc1 [Example 360, N-(3-oxo-7-phenylisoindolin-4-yl)-4-((2-(piperidin-1-yl)ethyl)amino)benzamide]",320 nM
23,"CCCCOc1cccc(-c2ccc(NC(=O)c3ccccc3)c3c2CNC3=O)c1 [Example 46, N-(7-(3-butoxyphenyl)-3-oxoisoindolin-4-yl)benzamide]",> 20000 nM
24,"O=C(Nc1ccc(-c2ccco2)c2c1C(=O)NC2)c1ccc(NCCN2CCCCCC2)cc1 [Example 293, 4-((2-(Azepan-1-yl)ethyl)amino)-N-(7-(furan-2-yl)-3-oxoisoindolin-4-yl)benzamide]",480 nM
25,"O=C(Nc1ccc(-c2cn[nH]c2)c2c1C(=O)NC2)c1ccccc1 [Example 55, N-(3-oxo-7-(1H-pyrazol-4-yl)isoindolin-4-yl)benzamide]",4620 nM
26,"O=C(Nc1ccc(-c2ccccc2)c2c1C(=O)NC2)Oc1ccccc1 [Example 248, Phenyl (3-oxo-7-phenylisoindolin-4-yl)carbamate]",> 20000 nM
27,"O=C(Nc1ccccc1)Nc1ccc(-c2ccccc2)c2c1C(=O)NC2 [Example 227, 1-(3-Oxo-7-phenylisoindolin-4-yl)-3-phenylurea]",1200 nM
28,"Nc1ccc(-c2cccs2)c2c1C(=O)NC2=O [Example 275, 4-Amino-7-(thiophen-2-yl)isoindolin-1,3-dione]",1100 nM

# Second part, the compound after the results:
row,IC50,Compound
1,110 nM,"COCCNc1ccc(C(=O)Nc2ccc(Nc3ccccc3)c3c2C(=O)NC3)cc1 [Example 444, 4-((2-Methoxyethyl)amino)-N-(3-oxo-7-(phenylamino)isoindolin-4-yl)benzamide]"
2,1170 nM,"O=C(Nc1ccc(Nc2cccc(Cl)c2)c2c1C(=O)NC2)c1ccc(F)cc1 [Example 418, N-(7-((3-chlorophenyl)amino)-3-oxoisoindolin-4-yl)-4-fluorobenzamide]"
3,> 20000 nM,"N#Cc1ccc(C(=O)Nc2ccc(-c3ccccc3)c3c2C(=O)NC3)cc1 [Example 208, 4-Cyano-N-(3-oxo-7-phenylisoindolin-4-yl)benzamide]"
4,590 nM,"Cc1cccc(Nc2ccc(NC(=O)c3ccccc3)c3c2CNC3=O)c1 [Example 436, N-(3-oxo-7-(m-tolylamino)isoindolin-4-yl)benzamide]"
5,93 nM,"O=C(Nc1ccc(Nc2ccccc2)c2c1C(=O)NC2)c1ccc(NCC(O)CN2CCCCC2)cc1 (stereo not drawn) [Example 488, 4-((2-Hydroxy-3-(piperidin-1-yl)propyl)amino)-N-(3-oxo-7-(phenylamino)isoindolin-4-yl)benzamide]"
6,310 nM,"CN(C)CCCNc1ccc(C(=O)Nc2ccc(-c3ccccc3)c3c2C(=O)NC3)cc1 [Example 381, 4-((3-(Dimethylamino)propyl)amino)-N-(3-oxo-7-phenylisoindolin-4-yl) benzamide]"
7,670 nM,"COc1cccc(C(=O)Nc2ccc(Nc3ccccc3)c3c2C(=O)NC3)c1 [Example 434, 3-Methoxy-N-(3-oxo-7-(phenylamino)isoindolin-4-yl) benzamide]"
8,> 20000 nM,"O=C(Nc1ccc(-c2ccc(C(F)(F)F)cc2)c2c1C(=O)NC2)c1ccccc1 [Example 210, N-(3-oxo-7-(4-(trifluoromethyl)phenyl)isoindolin-4-yl) benzamide]"
9,> 20000 nM,"O=C(Nc1ccc(-c2ccc(OC(F)(F)F)cc2)c2c1C(=O)NC2)c1ccccc1 [Example 186, N-(3-oxo-7-(4-(trifluoromethoxy)phenyl)isoindolin-4-yl) benzamide]"
10,12200 nM,"COc1ccccc1C(=O)Nc1ccc(Nc2ccccc2)c2c1C(=O)NC2 [Example 432, 2-Methoxy-N-(3-oxo-7-(phenylamino)isoindolin-4-yl) benzamide]"
11,840 nM,"COc1ccccc1Nc1ccc(NC(=O)c2ccc(F)cc2)c2c1CNC2=O [Example 425, 4-Fluoro-N-(7-((2-methoxyphenyl)amino)-3-oxoisoindolin-4-yl)benzamide]"
12,> 20000 nM,"O=C(Nc1ccc(-c2ccncc2)c2c1C(=O)NC2)c1ccccc1 [Example 128, N-(3-oxo-7-(pyridin-4-yl)isoindolin-4-yl)benzamide hydrochloride]"
13,1700 nM,"O=C(Nc1ccc(Nc2cccc(F)c2)c2c1C(=O)NC2)c1ccccc1 [Example 415, N-(7-((3-fluorophenyl)amino)-3-oxoisoindolin-4-yl)benzamide]"
14,4100 nM,"Cc1ccc(Nc2ccc(NC(=O)c3ccccc3)c3c2CNC3=O)cc1 [Example 412, N-(3-oxo-7-(p-tolylamino)isoindolin-4-yl)benzamide]"
15,110 nM,"O=C(Nc1ccc(Nc2ccccc2)c2c1C(=O)NC2)c1ccc(NCCCN2CCCCC2)cc1 [Example 479, N-(3-oxo-7-(phenylamino)isoindolin-4-yl)-4-((3-(piperidin-1-yl)propyl)amino)benzamide]"
